Results: patent US6846492B2, “Use of phenylethylamine derivatives for the antimicrobial treatment of surfaces” (Ciba Specialty Chemicals Corporation, priority 2000, dated 2005)

Test system: Staphylococcus hominis DMS 20328 (= SH)
Test: MIC determination in microtiter plates, Staphylococcus hominis
Assay type: cell-based
Conditions: Tables 2a/2b, 48 hours at 37° C., ≦20% growth, optical density 620 nm, tested at 120, 60, 30, 15, 7.5 and 3.5 ppm, some approximate
Description: (§1) Determination of the Minimum Inhibitory Concentration (MIC Value) in Microtiter Plates
(§2) Casein/soybean flour peptone bouillon for the preparation of pre-cultures of the test bacteria and yeast.
(§3) Mycological slant agar for the pre-culture of moulds
(§4) The test substances are pre-dissolved in dimethyl sulfoxide (DMSO) and tested in a dilution series of 1:2.
(§5) Bacteria and yeast are cultured overnight in CASO bouillon, the mould is cultured overnight on mycological slant agar, and washed off with 10 ml of 0.85% sodium chloride solution (+0.1% TritonX-100).
(§6) All the test organisms are adjusted to an organism count of 1−5×10^6 CFU/ml using 0.85% sodium chloride solution.
(§7) The test substances are pre-pipetted into microtiter plates in an amount of 8 μl per well.
(§8) Pre-diluted organism suspensions are diluted 1:100 in CASO bouillon (bacteria and yeast) or Sabouraud 2% glucose bouillon (mould) and are added in an amount of 192 μl per well to the test substances.
(§9) The test batches are incubated for 48 hours at 37° C. (bacteria and yeast) or for 5 days at 28° C. (mould).
(§10) After incubation, the growth is evaluated by reference to the turbidity of the test batches (optical density) at 620 nm in a microplate reader.
(§11) One microtiter plate is used for each test organism and substance concentration. All the substances are tested in duplicate.

| Structure (SMILES) | MIC [ppm] SH |
| --- | --- |
| Cc1cccc(COc2ccc(CCN)cc2OCc2cccc(C)c2)c1 [Compound 6] | 7.5 ppm |
| COC(=O)c1ccc(COc2ccc(CCN)cc2OCc2ccc(C(=O)OC)cc2)cc1 [Compound 14] | 7.5 ppm |
| CCOC(=O)CCCCOc1cc(CCN)cc(OCCCCC(=O)OCC)c1OCCCCC(=O)OCC [Compound 79] | >120 ppm |
| NCCc1cc(OCc2ccccc2F)c(OCc2ccccc2F)c(OCc2ccccc2F)c1 [Compound 66] | 15 ppm |
| CCC(CC)Oc1ccc(CCN)cc1OC(CC)CC [Compound 35] | 60 ppm |
| CCCCCCOc1ccc(CCN)cc1OCCCCCC [Compound 36] | 3.75 ppm |
| NCCc1ccc(OCc2ccccc2)c(OCc2ccccc2)c1 [Compound 19] | 28 ppm |
| CCCOC(=O)COc1cc(CCN)cc(OCC(=O)OCCC)c1OCC(=O)OCCC [Compound 74] | >120 ppm |
| CCCCCCCOc1ccc(CCN)cc1OCCCCCCC [Compound 37] | 3.75 ppm |
| NCCc1cc(OCc2cccc(F)c2)c(OCc2cccc(F)c2)c(OCc2cccc(F)c2)c1 [Compound 67] | 3.75 ppm |
| C=CCCOc1cc(CCN)cc(OCCC=C)c1OCCC=C [Compound 94] | 60 ppm |
| CC(C)(C)c1ccc(COc2cc(CCN)cc(OCc3ccc(C(C)(C)C)cc3)c2OCc2ccc(C(C)(C)C)cc2)cc1 [Compound 69] | >120 ppm |
| COC(=O)COc1ccc(CCN)cc1OCC(=O)OC [Compound 21] | >120 ppm |
| CCCCCCCCCCOc1ccc(CCN)cc1OCCCCCCCCCC [Compound 40] | >120 ppm |

Test system: Escherichia coli NCTC 8196 (= EC)
Test: MIC determination in microtiter plates, Escherichia coli
Assay type: cell-based
Conditions: Tables 2a/2b, 48 hours at 37° C., ≦20% growth, optical density 620 nm, some approximate values
Description: as §1, §2, §3, §4, §5, §6, §7, §8, §9, §10, §11

| Structure (SMILES) | MIC [ppm] EC |
| --- | --- |
| Cc1cccc(COc2ccc(CCN)cc2OCc2cccc(C)c2)c1 [Compound 6] | 15 ppm |
| COC(=O)c1ccc(COc2ccc(CCN)cc2OCc2ccc(C(=O)OC)cc2)cc1 [Compound 14] | 30 ppm |
| CCOC(=O)CCCCOc1cc(CCN)cc(OCCCCC(=O)OCC)c1OCCCCC(=O)OCC [Compound 79] | >120 ppm |
| NCCc1cc(OCc2ccccc2F)c(OCc2ccccc2F)c(OCc2ccccc2F)c1 [Compound 66] | 15 ppm |
| CCC(CC)Oc1ccc(CCN)cc1OC(CC)CC [Compound 35] | 60 ppm |
| CCCCCCOc1ccc(CCN)cc1OCCCCCC [Compound 36] | 3.75 ppm |
| NCCc1ccc(OCc2ccccc2)c(OCc2ccccc2)c1 [Compound 19] | 28 ppm |
| CCCOC(=O)COc1cc(CCN)cc(OCC(=O)OCCC)c1OCC(=O)OCCC [Compound 74] | >120 ppm |
| CCCCCCCOc1ccc(CCN)cc1OCCCCCCC [Compound 37] | 30 ppm |
| NCCc1cc(OCc2cccc(F)c2)c(OCc2cccc(F)c2)c(OCc2cccc(F)c2)c1 [Compound 67] | 7.5 ppm |
| C=CCCOc1cc(CCN)cc(OCCC=C)c1OCCC=C [Compound 94] | 60 ppm |
| CC(C)(C)c1ccc(COc2cc(CCN)cc(OCc3ccc(C(C)(C)C)cc3)c2OCc2ccc(C(C)(C)C)cc2)cc1 [Compound 69] | >120 ppm |
| COC(=O)COc1ccc(CCN)cc1OCC(=O)OC [Compound 21] | >120 ppm |
| CCCCCCCCCCOc1ccc(CCN)cc1OCCCCCCCCCC [Compound 40] | >120 ppm |

Test system: Pseudomonas aeruginosa CIP A-22 (= PA)
Test: MIC determination in microtiter plates, Pseudomonas aeruginosa
Assay type: cell-based
Conditions: Tables 2a/2b, 48 hours at 37° C., ≦20% growth, optical density 620 nm, some approximate values
Description: as §1, §2, §3, §4, §5, §6, §7, §8, §9, §10, §11

| Structure (SMILES) | MIC [ppm] PA |
| --- | --- |
| Cc1cccc(COc2ccc(CCN)cc2OCc2cccc(C)c2)c1 [Compound 6] | 120 ppm |
| COC(=O)c1ccc(COc2ccc(CCN)cc2OCc2ccc(C(=O)OC)cc2)cc1 [Compound 14] | 120 ppm |
| CCOC(=O)CCCCOc1cc(CCN)cc(OCCCCC(=O)OCC)c1OCCCCC(=O)OCC [Compound 79] | >120 ppm |
| NCCc1cc(OCc2ccccc2F)c(OCc2ccccc2F)c(OCc2ccccc2F)c1 [Compound 66] | >120 ppm |
| CCC(CC)Oc1ccc(CCN)cc1OC(CC)CC [Compound 35] | >120 ppm |
| CCCCCCOc1ccc(CCN)cc1OCCCCCC [Compound 36] | >120 ppm |
| NCCc1ccc(OCc2ccccc2)c(OCc2ccccc2)c1 [Compound 19] | >120 ppm |
| CCCOC(=O)COc1cc(CCN)cc(OCC(=O)OCCC)c1OCC(=O)OCCC [Compound 74] | >120 ppm |
| CCCCCCCOc1ccc(CCN)cc1OCCCCCCC [Compound 37] | >120 ppm |
| NCCc1cc(OCc2cccc(F)c2)c(OCc2cccc(F)c2)c(OCc2cccc(F)c2)c1 [Compound 67] | >120 ppm |
| C=CCCOc1cc(CCN)cc(OCCC=C)c1OCCC=C [Compound 94] | >120 ppm |
| CC(C)(C)c1ccc(COc2cc(CCN)cc(OCc3ccc(C(C)(C)C)cc3)c2OCc2ccc(C(C)(C)C)cc2)cc1 [Compound 69] | >120 ppm |
| COC(=O)COc1ccc(CCN)cc1OCC(=O)OC [Compound 21] | >120 ppm |
| CCCCCCCCCCOc1ccc(CCN)cc1OCCCCCCCCCC [Compound 40] | >120 ppm |

Test system: Candida albicans ATCC 10231 (= CA)
Test: MIC determination in microtiter plates, Candida albicans
Assay type: cell-based
Conditions: Tables 2a/2b, 48 hours at 37° C., ≦20% growth, optical density 620 nm, some approximate values
Description: as §1, §2, §3, §4, §5, §6, §7, §8, §9, §10, §11

| Structure (SMILES) | MIC [ppm] CA |
| --- | --- |
| Cc1cccc(COc2ccc(CCN)cc2OCc2cccc(C)c2)c1 [Compound 6] | 7.5 ppm |
| COC(=O)c1ccc(COc2ccc(CCN)cc2OCc2ccc(C(=O)OC)cc2)cc1 [Compound 14] | 30 ppm |
| CCOC(=O)CCCCOc1cc(CCN)cc(OCCCCC(=O)OCC)c1OCCCCC(=O)OCC [Compound 79] | >120 ppm |
| NCCc1cc(OCc2ccccc2F)c(OCc2ccccc2F)c(OCc2ccccc2F)c1 [Compound 66] | 120 ppm |
| CCC(CC)Oc1ccc(CCN)cc1OC(CC)CC [Compound 35] | 60 ppm |
| CCCCCCOc1ccc(CCN)cc1OCCCCCC [Compound 36] | 3.75 ppm |
| NCCc1ccc(OCc2ccccc2)c(OCc2ccccc2)c1 [Compound 19] | 60 ppm |
| CCCOC(=O)COc1cc(CCN)cc(OCC(=O)OCCC)c1OCC(=O)OCCC [Compound 74] | >120 ppm |
| CCCCCCCOc1ccc(CCN)cc1OCCCCCCC [Compound 37] | 30 ppm |
| NCCc1cc(OCc2cccc(F)c2)c(OCc2cccc(F)c2)c(OCc2cccc(F)c2)c1 [Compound 67] | 7.5 ppm |
| C=CCCOc1cc(CCN)cc(OCCC=C)c1OCCC=C [Compound 94] | 120 ppm |
| CC(C)(C)c1ccc(COc2cc(CCN)cc(OCc3ccc(C(C)(C)C)cc3)c2OCc2ccc(C(C)(C)C)cc2)cc1 [Compound 69] | >120 ppm |
| COC(=O)COc1ccc(CCN)cc1OCC(=O)OC [Compound 21] | >120 ppm |
| CCCCCCCCCCOc1ccc(CCN)cc1OCCCCCCCCCC [Compound 40] | >120 ppm |

Test system: Aspergillus niger ATCC 6275 (= AN)
Test: MIC determination in microtiter plates, Aspergillus niger
Assay type: cell-based
Conditions: Tables 2a/2b, 5 days at 28° C., ≦20% growth, optical density 620 nm, some approximate values
Description: as §1, §2, §3, §4, §5, §6, §7, §8, §9, §10, §11

| Structure (SMILES) | MIC [ppm] AN |
| --- | --- |
| Cc1cccc(COc2ccc(CCN)cc2OCc2cccc(C)c2)c1 [Compound 6] | 120 ppm |
| COC(=O)c1ccc(COc2ccc(CCN)cc2OCc2ccc(C(=O)OC)cc2)cc1 [Compound 14] | >120 ppm |
| CCOC(=O)CCCCOc1cc(CCN)cc(OCCCCC(=O)OCC)c1OCCCCC(=O)OCC [Compound 79] | 120 ppm |
| NCCc1cc(OCc2ccccc2F)c(OCc2ccccc2F)c(OCc2ccccc2F)c1 [Compound 66] | >120 ppm |
| CCC(CC)Oc1ccc(CCN)cc1OC(CC)CC [Compound 35] | >120 ppm |
| CCCCCCOc1ccc(CCN)cc1OCCCCCC [Compound 36] | >120 ppm |
| NCCc1ccc(OCc2ccccc2)c(OCc2ccccc2)c1 [Compound 19] | >120 ppm |
| CCCOC(=O)COc1cc(CCN)cc(OCC(=O)OCCC)c1OCC(=O)OCCC [Compound 74] | >120 ppm |
| CCCCCCCOc1ccc(CCN)cc1OCCCCCCC [Compound 37] | >120 ppm |
| NCCc1cc(OCc2cccc(F)c2)c(OCc2cccc(F)c2)c(OCc2cccc(F)c2)c1 [Compound 67] | >120 ppm |
| C=CCCOc1cc(CCN)cc(OCCC=C)c1OCCC=C [Compound 94] | >120 ppm |
| CC(C)(C)c1ccc(COc2cc(CCN)cc(OCc3ccc(C(C)(C)C)cc3)c2OCc2ccc(C(C)(C)C)cc2)cc1 [Compound 69] | >120 ppm |
| COC(=O)COc1ccc(CCN)cc1OCC(=O)OC [Compound 21] | 120 ppm |
| CCCCCCCCCCOc1ccc(CCN)cc1OCCCCCCCCCC [Compound 40] | >120 ppm |
